# Data reported in patent US8026110B2, “Combinatorial rosamine library and uses thereof” (New York University, priority 2006, dated 2011).
# “Also recorded” adds a separate entry of the source.
# Tested on: DNA
# Experiment: Screening of rosamine library toward 47 analytes: DNA
# Type: binding
# Conditions: screen of 47 analytes, duplicated, FIG. 10B
# Procedure: The rosamine derivative compounds were screened toward 47 different analytes that include proteins, polysaccharides, nucleic acids, and metal ions. The stock solution of each dye (50 μL) in HEPES (20 mM, pH=7.4) or PBS (20 mM, pH=7.4) was prepared, and diluted with the each analyte (50 μL, 1.0 mg/mL or 200 μM) in the same buffer solution. The final dye concentration varied from 0.5 μM to 10 μM. The fluorescence intensity fold changes of each dye in the presence of analytes were calculated by comparing the fluorescence intensity at the maximum emission wavelength with/without the analyte.
structure (smiles),measurement,value
"CCN(CCCN(C)C)c1ccc2c(=O)c3ccc(N)cc3oc2c1 [L, 3-Amino-6-[(3-dimethylamino-propyl)-ethyl-amino]-xanthen-9-one]",fluorescence response to DNA,selective response; also recorded: selective increase of fluorescence intensity
